Data on six compounds can be found in ChEMBL document CHEMBL4196200 (J Med Chem, 2018).

Molecules are shown by their SMILES. Converted amounts (≈) assume the structure as drawn. Numbered stars: 1 amine (or outer) side, 2 acyl side, 3 side chain; on linkers, the order of the positions; unused ones are H or OH. Bridge positions count the residues as written; N and C are the ends. Peptide text beside a SMILES is read from it. X1 = O=C(CCC[*:2])[*:1]

The term Ki denotes a measure of affinity in units of concentration, obtained from inhibition or displacement. High values mean a looser hold on the target, low ones a stronger hold on the target. The term Emax denotes the maximal effect, on the per cent scale that the assay sets. By IC50 is commonly meant the concentration that inhibits the measured activity by half. Usually EC50 stands for the midpoint of the concentration-response curve. As a reminder, the inhibition is the share of the control response that was lost under treatment.

Data set [1] concerns the target T1, Vasopressin V1a receptor (Homo sapiens, UniProt P37288). The data set is described as follows: Displacement of DY647 from SNAP-tagged V1A receptor (unknown origin) expressed in HEK293 cells by TR-FRET assay. Type of data set: cell-based.
Target sequence in this assay (P37288 whole entry): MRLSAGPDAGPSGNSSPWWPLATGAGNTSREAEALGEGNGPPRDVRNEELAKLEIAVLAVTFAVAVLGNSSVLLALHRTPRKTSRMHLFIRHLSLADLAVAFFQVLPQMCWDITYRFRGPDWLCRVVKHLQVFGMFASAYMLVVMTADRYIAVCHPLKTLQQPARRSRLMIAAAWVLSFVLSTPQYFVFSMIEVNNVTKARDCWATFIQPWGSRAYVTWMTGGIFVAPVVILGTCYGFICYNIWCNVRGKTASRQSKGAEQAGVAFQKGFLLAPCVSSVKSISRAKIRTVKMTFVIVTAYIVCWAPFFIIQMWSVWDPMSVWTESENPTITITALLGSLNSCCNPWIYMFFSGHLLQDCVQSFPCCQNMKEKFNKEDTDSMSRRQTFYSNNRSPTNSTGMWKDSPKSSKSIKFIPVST
In data set [2] the target is T2, Oxytocin receptor (Homo sapiens) (UniProt P30559).
T2 sequence (whole entry): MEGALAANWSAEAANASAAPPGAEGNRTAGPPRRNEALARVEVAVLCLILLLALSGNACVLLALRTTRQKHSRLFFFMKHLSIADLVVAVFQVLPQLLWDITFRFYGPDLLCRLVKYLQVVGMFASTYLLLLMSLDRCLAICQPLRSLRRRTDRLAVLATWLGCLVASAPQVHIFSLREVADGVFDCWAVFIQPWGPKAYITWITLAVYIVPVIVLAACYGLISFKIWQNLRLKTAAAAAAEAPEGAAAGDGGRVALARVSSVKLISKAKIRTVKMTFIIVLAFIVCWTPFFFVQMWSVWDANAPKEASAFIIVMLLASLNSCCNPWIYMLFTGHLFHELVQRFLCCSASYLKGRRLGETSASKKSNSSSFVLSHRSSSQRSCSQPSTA
The data set is described as follows: Agonist activity at human OTR expressed in HEK cells assessed as increase in intracellular calcium flux at 1 uM incubated for 45 mins by Indo1-AM dye based fluorescence assay relative to OT. Type of data set: functional, cell-based. For orientation: Calcium flux is commonly read through the fluorescence of an indicator in the cells.

The target in data set [3] is T3, Oxytocin receptor (Homo sapiens, UniProt P30559).
T3 sequence (P30559 whole entry): T2 sequence (whole entry)
In words: Displacement of DY647 from SNAP-tagged OTR receptor (unknown origin) expressed in HEK293 cells by TR-FRET assay. Type of data set: cell-based.

Data set [4] deals with T1, Vasopressin V1a receptor. The data set is described as follows: Agonist activity at human V1A receptor expressed in HEK cells assessed as increase in intracellular calcium flux at 1 uM incubated for 45 mins by Indo1-AM dye based fluorescence assay relative to AVP. Type of data set: functional, cell-based.
Target sequence in this assay (P37288 whole entry, looked up): as the sequence (P37288 whole entry) above
For data set [5], the target named is T4, Vasopressin V2 receptor (Homo sapiens, UniProt P30518). The data set is described as follows: Displacement of DY647 from SNAP-tagged V2 receptor (unknown origin) expressed in HEK293 cells by TR-FRET assay. Type of data set: cell-based.
T4 sequence (P30518 whole entry): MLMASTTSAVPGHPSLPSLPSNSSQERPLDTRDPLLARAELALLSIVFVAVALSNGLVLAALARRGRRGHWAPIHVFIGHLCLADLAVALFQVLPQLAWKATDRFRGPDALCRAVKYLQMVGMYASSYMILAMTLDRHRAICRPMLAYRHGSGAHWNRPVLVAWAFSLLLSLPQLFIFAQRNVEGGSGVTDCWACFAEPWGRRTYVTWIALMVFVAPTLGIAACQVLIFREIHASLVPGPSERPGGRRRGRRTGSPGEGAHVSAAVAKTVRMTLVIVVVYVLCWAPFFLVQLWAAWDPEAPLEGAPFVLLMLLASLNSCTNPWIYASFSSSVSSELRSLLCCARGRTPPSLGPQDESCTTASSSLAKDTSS
In data set [6] the target is T1, Vasopressin V1a receptor. In words: Antagonist activity at human V1A receptor expressed in HEK cells assessed as inhibition of AVP-induced intracellular calcium flux incubated for 45 mins by Indo1-AM dye based fluorescence assay relative to AVP. The data set is classed as functional, cell-based.
Target sequence in this assay (P37288 whole entry): as the sequence (P37288 whole entry) above
The target of data set [7] is T3, Oxytocin receptor. In words: Antagonist activity at human OTR expressed in HEK cells assessed as inhibition of OT-induced intracellular calcium flux incubated for 45 mins by Indo1-AM dye based fluorescence assay. Type of data set: functional, cell-based.
The target in data set [8] is T5, Oxytocin receptor (Mus musculus, UniProt P97926).
T5 sequence (P97926 whole entry): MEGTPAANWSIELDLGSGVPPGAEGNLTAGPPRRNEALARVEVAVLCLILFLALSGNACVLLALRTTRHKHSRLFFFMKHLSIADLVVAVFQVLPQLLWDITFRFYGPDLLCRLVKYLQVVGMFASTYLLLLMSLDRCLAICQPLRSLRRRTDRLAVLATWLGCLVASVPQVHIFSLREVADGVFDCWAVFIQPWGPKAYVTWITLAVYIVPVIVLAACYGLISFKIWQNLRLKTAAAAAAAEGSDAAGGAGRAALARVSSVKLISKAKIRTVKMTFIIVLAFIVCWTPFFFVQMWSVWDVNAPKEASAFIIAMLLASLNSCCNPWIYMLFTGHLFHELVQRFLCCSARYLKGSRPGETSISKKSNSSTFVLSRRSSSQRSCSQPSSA
In words: Agonist activity at mouse OTR receptor expressed in HEK293FT cells assessed as stimulation of calcium release by Aequorin based assay. The data set is classed as functional, cell-based.

For data set [9], the target named is T6, Vasopressin V1b receptor (Homo sapiens, UniProt P47901).
T6 sequence (P47901 whole entry): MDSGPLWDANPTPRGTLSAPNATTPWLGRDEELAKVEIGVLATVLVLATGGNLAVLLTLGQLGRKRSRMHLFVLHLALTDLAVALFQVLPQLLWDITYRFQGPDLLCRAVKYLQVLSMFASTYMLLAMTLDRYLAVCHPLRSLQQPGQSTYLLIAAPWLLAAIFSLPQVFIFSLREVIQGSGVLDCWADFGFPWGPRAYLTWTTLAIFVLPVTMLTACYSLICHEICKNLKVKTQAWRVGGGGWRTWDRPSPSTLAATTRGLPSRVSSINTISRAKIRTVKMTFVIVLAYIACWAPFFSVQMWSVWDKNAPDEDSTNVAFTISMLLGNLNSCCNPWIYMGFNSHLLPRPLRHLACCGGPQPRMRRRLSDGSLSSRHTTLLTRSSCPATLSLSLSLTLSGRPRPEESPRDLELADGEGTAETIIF
Description: Agonist activity at human V1b receptor expressed in HEK293FT cells incubated for 30 mins by beta-arrestin recruitment assay

The target of data set [10] is T1, Vasopressin V1a receptor.
Target sequence in this assay (P37288 whole entry): as the sequence (P37288 whole entry) above
Description: Agonist activity at human V1a receptor expressed in HEK293FT cells assessed as stimulation of calcium release by Aequorin based assay
The target of data set [11] is T7, Oxytocin receptor (Mus musculus) (UniProt P97926).
T7 sequence (whole entry): T5 sequence (P97926 whole entry)
In words: Agonist activity at mouse OTR receptor expressed in HEK293FT cells assessed as stimulation of calcium release by Aequorin based assay relative to OT. Type of data set: functional, cell-based.

Data set [12] concerns the target T1, Vasopressin V1a receptor. The source holds these as a separate data set.
Target sequence in this assay (P37288 whole entry): as the sequence (P37288 whole entry) above
Description: Agonist activity at human V1a receptor expressed in HEK293FT cells incubated for 30 mins by beta-arrestin recruitment assay
The target of data set [13] is T2, Oxytocin receptor (Homo sapiens). The data set is described as follows: Agonist activity at recombinant human OTR expressed in CHO-DUKX-A2 cells assessed as stimulation of intracellular calcium concentration by calcium 3 dye based FLIPR assay relative to OT. The data set is classed as functional, cell-based.
Data set [14] deals with T6, Vasopressin V1b receptor. In words: Binding affinity to V1B receptor (unknown origin).
Data set [15] is described as follows: Thermodynamic solubility in pH 7.4 buffer. The data set is classed as physicochemical. The conditions noted are these: read-out: Therm_solubility.
The target of data set [16] is T2, Oxytocin receptor (Homo sapiens). The data set is described as follows: Agonist activity at human OTR expressed in HEK cells assessed as increase in intracellular calcium flux incubated for 45 mins by Indo1-AM dye based fluorescence assay relative to OT. Type of data set: functional, cell-based.
Data set [17] shares this target. In words: Antagonist activity at human OTR expressed in HEK cells assessed as inhibition of OT-induced intracellular calcium flux at 1 uM incubated for 45 mins by Indo1-AM dye based fluorescence assay relative to OT. The data set is classed as functional, cell-based.
Data set [18] shares this target. The data set is described as follows: Agonist activity at human OTR receptor expressed in HEK293FT cells assessed as stimulation of calcium release by Aequorin based assay relative to OT. The data set is classed as functional, cell-based.
The target is the same in data set [19]. In words: Agonist activity at human OTR receptor expressed in HEK293FT cells incubated for 30 mins by beta-arrestin recruitment assay relative to OT. The data set is classed as functional, cell-based.
For data set [20], the target named is T4, Vasopressin V2 receptor. In words: Binding affinity to V2 receptor (unknown origin).
The target of data set [21] is T4, Vasopressin V2 receptor. The data set is described as follows: Agonist activity at human V2 receptor expressed in HEK293FT cells assessed as stimulation of calcium release by Aequorin based assay. The data set is classed as functional, cell-based.
The target in data set [22] is T4, Vasopressin V2 receptor. In words: Displacement of [3H]-AVP from human V2 receptor expressed in CHO cell membranes. In general terms: Displacement assays read how much labelled ligand stays bound in the presence of the test substance.
The target of data set [23] is T1, Vasopressin V1a receptor. The data set is described as follows: Displacement of [3H]-AVP from human V1A receptor expressed in CHO cell membranes.
Target sequence in this assay (P37288 whole entry): as the sequence (P37288 whole entry) above
Data set [24] has as its target T6, Vasopressin V1b receptor. The data set is described as follows: Displacement of [3H]-AVP from human V1B receptor expressed in CHO cell membranes.
Data set [25] concerns the target T3, Oxytocin receptor. In words: Displacement of [3H]-oxytocin from OTR receptor in human USMC cell membranes.

As to `Cc1cc(C(=O)N2Cc3cnn(C)c3Nc3ccccc32)ccc1CNC(=O)NCC(=S)N(C)C`, the inhibition constant Ki in [1] was 82 nM; in data set [3] it was 61 nM; in data set [5], over 1000 nM. Moreover, the Emax in data set [2] and in [4] was 5 to 10% throughout. Besides, the concentration for half-maximal inhibition (IC50) in data set [6] was determined as 9 nM; in [7] it was 600 nM.
For the compound `CC[C@H](C)[C@@H]1NC(=O)[C@H](Cc2ccc(OC)cc2)NC(=O)CCCSC[C@@H](C(=O)N2CCC[C@H]2C(=O)N[C@@H](CC(C)C)C(=O)NCC(N)=O)NC(=O)[C@H](CC(N)=O)NC(=O)[C@H](CCC(N)=O)NC1=O` [CARBETOCIN] (Y(Me)IQNCPLG-NH2; linker N-5 via X1), the EC50 in [8] is 62 nM; in [9], “Not Active”; in data set [10], “Not Active”. Further, the maximum response (Emax) in data set [11] was 85%. Further, the IC50 result in data set [12] is on record as “Not Active”.
For `Cc1cc(C(=O)N2Cc3cnn(C)c3Nc3ccccc32)ccc1CNC(=O)NCC(=O)N(C)C`, the Ki in [1] was over 1000 nM; in data set [3] it was 417 nM; in data set [5], over 1000 nM. Further, the maximal response (Emax) in data set [2] and in data set [4] was 5 to 10% throughout. For the same compound, the values for the 50% inhibitory concentration (IC50) in data set [6] and in [7] were 50 nM and 775 nM, respectively.
For `Cc1cc(C(=O)N2Cc3cnn(C)c3Nc3ccccc32)ccc1CNC(=O)N1CCN(Cc2cc(O)cc(O)c2)CC1`, the Emax in data set [13] amounted to 87.1%; in data set [16], 40%; in data set [18], 70%; in data set [19] it was 84%; in data set [11], 86%. The values for the Ki in data set [14], in data set [5] and in [20] were 1000 to 5800 nM, over 1000 nM and 58.4 to 1000 nM, respectively. The solubility thermodynamic in data set [15] worked out at 5 mM (≈ 2910 µg/mL). In addition, the values for the EC50 in data set [8] and in data set [21] were 78 nM and 2300 nM, respectively. The inhibition in [17] lay in the range of 5 to 10%.
For `COC(=O)CNC(=O)NCc1ccc(C(=O)N2Cc3cnn(C)c3Nc3ccccc32)cc1C`, the Ki in [1] is over 1000 nM; in data set [3] it was 385 nM; in [5] it was over 1000 nM. The Emax in data set [2] and in data set [4] was 5 to 10% throughout. Further, the IC50 in [6] was 110 nM; in data set [7], over 1000 nM.
Take `Cc1occc1C(=O)Nc1ccc(C(=O)N2CCC(F)(F)/C(=C\C(=O)N3CCC(N4CCCCC4)CC3)c3ccccc32)cc1`: the Ki was 381 nM in data set [22], 0.3 nM in data set [23], 25500 nM in data set [24] and 71 nM in [25].
